Assay results published in patent US20190144406A1, “CRYSTALLINE FORMS OF DIMETHOXY DOCETAXEL AND METHODS FOR PREPARING THE SAME” (Aventis Pharma S.A., priority 2008, published 2019).
Read-outs that look alike come from different tables or passages of the source.

Key:
[1] = solid form
Procedure: The analyses were carried out on a Panalytical X'Pert Pro diffractometer with a reflection-mode Bragg-Brentano focusing geometry (θ-2θ) assembly. The product analysed is deposited as a thin layer on a silicon single crystal. A copper anticathode tube (45 kV/40 mA) supplies an incident radiation Cu Kα1 (λ=1.5406 Å). The beam is collimated using Sollers slits which improve the parallelism and variable slits which limit scattering. An X'Celerator detector completes the device. The diagram recording characteristics are the following: sweeping from 2 to 30 degrees 2θ, counting time from 100 to 500 seconds per step with a step of 0.017°.

[2] = behaviour of the crystalline form under relative humidity; format: physicochemical; conditions: relative humidity of greater than 5%

Structure (SMILES) | comparison of the PXRD analyses immediately after production and after maintaining at 40° C. for one month [1] | stability relative to the other forms described (listed as anhydrous form D) | stability relative to the other forms described | change of form in the presence of relative humidity [2]
CO[C@H]1C(=O)[C@]2(C)[C@@H](OC)C[C@H]3OC[C@@]3(OC(C)=O)[C@H]2[C@H](OC(=O)c2ccccc2)[C@]2(O)C[C@H](OC(=O)[C@H](O)[C@@H](NC(=O)OC(C)(C)C)c3ccccc3)C(C)=C1C2(C)C [Form A, reference compound] | partial desolvation resulting in a mixture of the acetone solvate form A and of the anhydrous form B being obtained | – | – | –
CO[C@H]1C(=O)[C@]2(C)[C@@H](OC)C[C@H]3OC[C@@]3(OC(C)=O)[C@H]2[C@H](OC(=O)c2ccccc2)[C@]2(O)C[C@H](OC(=O)[C@H](O)[C@@H](NC(=O)OC(C)(C)C)c3ccccc3)C(C)=C1C2(C)C [Form D] | no change detected | most stable anhydrous form | – | –
CO[C@H]1C(=O)[C@]2(C)[C@@H](OC)C[C@H]3OC[C@@]3(OC(C)=O)[C@H]2[C@H](OC(=O)c2ccccc2)[C@]2(O)C[C@H](OC(=O)[C@H](O)[C@@H](NC(=O)OC(C)(C)C)c3ccccc3)C(C)=C1C2(C)C [anhydrous form C] | – | – | least stable | changes to a hydrated form
